Measurements taken from patent US11541050B2, “Pyrimidine derivatives for the treatment of viral infections” (JANSSEN SCIENCES IRELAND UC, priority 2011, dated 2023).

Molecular target: T1, human TLR8 (wild type sequence) (Homo sapiens, UniProt Q9NR97)
T1 construct: expressed in transfected cells; host or cells: HEK293
T1 sequence (Q9NR97 27-1041): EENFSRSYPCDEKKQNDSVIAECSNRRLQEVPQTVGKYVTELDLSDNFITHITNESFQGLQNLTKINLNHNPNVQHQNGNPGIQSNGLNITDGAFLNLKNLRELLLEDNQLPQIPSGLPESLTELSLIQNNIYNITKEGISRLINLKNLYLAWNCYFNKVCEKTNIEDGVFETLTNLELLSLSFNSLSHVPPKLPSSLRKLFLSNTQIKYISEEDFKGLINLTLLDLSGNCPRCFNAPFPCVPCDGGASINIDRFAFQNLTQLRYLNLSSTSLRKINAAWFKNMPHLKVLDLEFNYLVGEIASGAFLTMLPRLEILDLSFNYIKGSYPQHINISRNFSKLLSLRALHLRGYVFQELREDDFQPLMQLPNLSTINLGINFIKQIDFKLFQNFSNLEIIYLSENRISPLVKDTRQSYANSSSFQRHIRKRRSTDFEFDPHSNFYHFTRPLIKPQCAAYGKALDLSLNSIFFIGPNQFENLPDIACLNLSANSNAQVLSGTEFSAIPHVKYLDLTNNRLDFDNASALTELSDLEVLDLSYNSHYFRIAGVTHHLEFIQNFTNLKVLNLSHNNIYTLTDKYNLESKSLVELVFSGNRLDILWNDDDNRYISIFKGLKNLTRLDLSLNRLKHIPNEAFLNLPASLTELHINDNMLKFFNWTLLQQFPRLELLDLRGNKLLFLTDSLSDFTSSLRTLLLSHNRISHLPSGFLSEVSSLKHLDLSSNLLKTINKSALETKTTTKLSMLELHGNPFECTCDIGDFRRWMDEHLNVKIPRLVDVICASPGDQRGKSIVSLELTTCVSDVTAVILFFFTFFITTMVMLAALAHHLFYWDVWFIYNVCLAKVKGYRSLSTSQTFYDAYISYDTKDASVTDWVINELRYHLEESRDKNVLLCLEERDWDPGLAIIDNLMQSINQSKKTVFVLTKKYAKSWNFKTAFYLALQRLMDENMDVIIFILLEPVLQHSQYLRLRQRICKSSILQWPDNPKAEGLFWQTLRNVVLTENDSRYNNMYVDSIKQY
Assay: TLR8 cellular NFκB-luc reporter assay, wild type TLR8
Type: cell-based
Parameters: unit not given here
Conditions: lowest effective concentration, wild type TLR8 (compounds 74 onward)
Procedure: (§1) The ability of compounds to activate human TLR7 and/or TLR8 was assessed in a cellular reporter assay using HEK293 cells transiently transfected with a TLR7 or TLR8 expression vector and NFκB-luc reporter construct. In one instance the TLR expression construct expresses the respective wild type sequence or a mutant sequence comprising a deletion in the second leucine-rich repeat of the TLR.
(§2) Briefly, HEK293 cells were grown in culture medium (DMEM supplemented with 10% FCS and 2 mM Glutamine). For transfection of cells in 10 cm dishes, cells were detached with Trypsin-EDTA, transfected with a mix of CMV-TLR7 or TLR8 plasmid (750 ng), NFκB-luc plasmid (375 ng) and a transfection reagent and incubated for 48 hours at 37° C. in a humidified 5% CO2 atmosphere. Transfected cells were then detached with Trypsin-EDTA, washed in PBS and resuspended in medium to a density of 1.67×10^5 cells/mL. Thirty microliters of cells were then dispensed into each well in 384-well plates, where 10 μL of compound in 4% DMSO was already present. Following 6 hours incubation at 37° C., 5% CO2, the luciferase activity was determined by adding 15 μl of Steady Lite Plus substrate (Perkin Elmer) to each well and readout performed on a ViewLux ultraHTS microplate imager (Perkin Elmer). Dose response curves were generated from measurements performed in quadruplicates. Lowest effective concentrations (LEC) values, defined as the concentration that induces an effect which is at least two fold above the standard deviation of the assay, were determined for each compound.

| SMILES | TLR 8 wt LEC |
| --- | --- |
| CCCCNc1nc(N)ncc1OCCOc1ccc(C(=O)OC)cc1OC [Compound 132] | >25 |
| CCCCNc1nc(N)ncc1OCCOc1cc(OC)c(OC)c(OC)c1 [Compound 133] | 3.090 |
| CCCCNc1nc(N)ncc1OCCOc1ccc(C(=O)OC)c(OC)c1 [Compound 134] | 2.110 |
| CCCCNc1nc(N)ncc1OCCOc1ccc(C(F)(F)F)cc1 [Compound 135] | 1.970 |
| CCCCNc1nc(N)ncc1OCCOc1ccnc2ccsc12 [Compound 136] | 2.030 |
| CCCCNc1nc(N)ncc1OCc1cccc(CC(=O)OC)c1 [Compound 137] | 1.760 |
| CCCCNc1nc(N)ncc1OCc1cccc2c1OCCCO2 [Compound 138] | 1.050 |
| CCCCNc1nc(N)ncc1OCc1nccc(OCC(F)(F)F)c1C [Compound 139] | 0.286 |
| CCCCNc1nc(N)ncc1OCCOc1ccc(OC)c(OC)c1 [Compound 140] | 2.250 |
| CCCCNc1nc(N)ncc1OCCOc1ccnc2cc(OC)ccc12 [Compound 141] | 0.704 |
| CCCCNc1nc(N)ncc1OCCOc1cc(C(C)C)nc2cc(OC)ccc12 [Compound 142] | 2.370 |
| CCCCNc1nc(N)ncc1OCCOc1cccnc1 [Compound 143] | 0.880 |
| CCCCNc1nc(N)ncc1OCCn1ccc(=O)c2ccc(OC)cc21 [Compound 144] | 20.790 |
| CCCC[C@H](CCO)Nc1nc(N)ncc1OCc1ccccc1 [Compound 145] | 1.920 |

System: HCV replicon in Huh-7 luc/neo cells
Assay: Suppression of HCV replicon replication by conditioned media from compound-treated PBMC
Type: cell-based, HCV type 1 b
Conditions: Hepatitis C virus; conditioned media from compound-treated PBMC on Huh-7 luc/neo replicon cells (compounds 74 onward); read-out: PBMC HUH-7 EC50
Procedure: Activation of human TLR7 results in robust production of interferon by plasmacytoid dendritic cells present in human blood. The potential of compounds to induce interferon was evaluated by looking at the antiviral activity in the HCV replicon system upon incubation with conditioned media from peripheral blood mononuclear cells (PBMC). […] The assay utilized the stably transfected cell line Huh-7 luc/neo harboring an RNA encoding a bicistronic expression construct comprising the wild type NS3-NS5B regions of HCV type 1 b translated from an Internal Ribosome Entry Site (IRES) from encephalomyocarditis virus (EMCV), preceded by a reporter gene (Firefly-luciferase) and a selectable marker gene (neoR, neomycine phosphotransferase). The construct is flanked by 5′ and 3′ NTRs (non-translated regions) from HCV type 1 b. Continued culture of the replicon cells in the presence of G418 (neoR) is dependent on the replication of the HCV RNA. The stably transfected replicon cells that replicate HCV RNA autonomously and to high levels, encoding inter alia luciferase, were used for profiling of the conditioned cell culture media.
Briefly, PBMCs were prepared from buffy coats of at least two donors using a standard Ficoll centrifugation protocol. Isolated PBMCs were resuspended in RPMI medium supplemented with 10% human AB serum and 2×10^5 cells/well were dispensed into 384-well plates containing compounds (70 μL total volume). After overnight incubation, 10 μL of supernatant was transferred to 384-well plates containing 2.2×10^3 replicon cells/well in 30 μL (plated the day before). Following 24 hours of incubation, replication was measured by assaying luciferase activity using 40 μL/well Steady Lite Plus substrate (Perkin Elmer) and measured with ViewLux ultraHTS microplate imager (Perkin Elmer). […] Recombinant interferon α-2a (Roferon-A) was used as a standard control compound.

| SMILES | EC50 |
| --- | --- |
| CCCCNc1nc(N)ncc1OCCOc1ccc(C(=O)OC)cc1OC [Compound 132] | 0.634 µM |
| CCCCNc1nc(N)ncc1OCCOc1cc(OC)c(OC)c(OC)c1 [Compound 133] | 0.585 µM |
| CCCCNc1nc(N)ncc1OCCOc1ccc(C(=O)OC)c(OC)c1 [Compound 134] | 0.935 µM |
| CCCCNc1nc(N)ncc1OCCOc1ccc(C(F)(F)F)cc1 [Compound 135] | 3.19 µM |
| CCCCNc1nc(N)ncc1OCCOc1ccnc2ccsc12 [Compound 136] | 0.275 µM |
| CCCCNc1nc(N)ncc1OCc1cccc(CC(=O)OC)c1 [Compound 137] | 22.8 µM |
| CCCCNc1nc(N)ncc1OCc1cccc2c1OCCCO2 [Compound 138] | 0.57 µM |
| CCCCNc1nc(N)ncc1OCc1nccc(OCC(F)(F)F)c1C [Compound 139] | 0.009 µM |
| CCCCNc1nc(N)ncc1OCCOc1ccc(OC)c(OC)c1 [Compound 140] | 0.175 µM |
| CCCCNc1nc(N)ncc1OCCOc1ccnc2cc(OC)ccc12 [Compound 141] | 0.733 µM |
| CCCCNc1nc(N)ncc1OCCOc1cc(C(C)C)nc2cc(OC)ccc12 [Compound 142] | 19.7 µM |
| CCCCNc1nc(N)ncc1OCCOc1cccnc1 [Compound 143] | 0.443 µM |
| CCCCNc1nc(N)ncc1OCCn1ccc(=O)c2ccc(OC)cc21 [Compound 144] | 1.32 µM |
| CCCC[C@H](CCO)Nc1nc(N)ncc1OCc1ccccc1 [Compound 145] | 0.632 µM |

Molecular target: T2, human TLR7 (wild type sequence) (Homo sapiens, UniProt Q9NYK1)
T2 construct: expressed in transfected cells; host or cells: HEK293
T2 sequence (Q9NYK1 27-1049): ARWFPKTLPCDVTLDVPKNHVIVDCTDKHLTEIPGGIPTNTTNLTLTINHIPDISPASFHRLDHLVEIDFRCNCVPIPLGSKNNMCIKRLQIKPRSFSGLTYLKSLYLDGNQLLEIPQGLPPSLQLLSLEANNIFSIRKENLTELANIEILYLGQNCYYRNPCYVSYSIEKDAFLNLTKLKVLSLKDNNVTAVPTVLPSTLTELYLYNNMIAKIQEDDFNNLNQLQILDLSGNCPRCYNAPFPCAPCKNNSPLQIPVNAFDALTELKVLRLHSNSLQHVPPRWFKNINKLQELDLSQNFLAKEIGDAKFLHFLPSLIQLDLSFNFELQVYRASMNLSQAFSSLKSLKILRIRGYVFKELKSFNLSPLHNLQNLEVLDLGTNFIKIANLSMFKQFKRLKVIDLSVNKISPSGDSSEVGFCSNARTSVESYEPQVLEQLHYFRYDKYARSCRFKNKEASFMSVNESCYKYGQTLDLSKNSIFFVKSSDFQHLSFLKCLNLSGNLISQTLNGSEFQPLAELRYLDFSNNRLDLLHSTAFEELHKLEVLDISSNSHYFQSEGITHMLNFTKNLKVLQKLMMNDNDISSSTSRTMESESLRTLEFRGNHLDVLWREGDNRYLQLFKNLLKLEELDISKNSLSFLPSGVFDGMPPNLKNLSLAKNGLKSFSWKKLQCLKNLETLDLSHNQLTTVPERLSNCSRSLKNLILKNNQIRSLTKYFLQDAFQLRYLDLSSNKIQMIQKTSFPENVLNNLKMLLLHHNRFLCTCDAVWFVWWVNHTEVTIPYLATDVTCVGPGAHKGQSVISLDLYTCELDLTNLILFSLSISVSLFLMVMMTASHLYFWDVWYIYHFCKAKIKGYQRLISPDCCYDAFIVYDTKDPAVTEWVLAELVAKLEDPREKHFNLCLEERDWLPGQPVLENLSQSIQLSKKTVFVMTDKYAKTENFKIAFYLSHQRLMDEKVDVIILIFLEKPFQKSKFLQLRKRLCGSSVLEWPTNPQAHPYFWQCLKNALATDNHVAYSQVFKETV
Assay: TLR7 cellular NFκB-luc reporter assay, wild type TLR7
Type: cell-based
Parameters: unit not given here
Conditions: lowest effective concentration, wild type TLR7 (compounds 74 onward)
Procedure: as §1, §2

| SMILES | TLR 7 wt LEC |
| --- | --- |
| CCCCNc1nc(N)ncc1OCCOc1ccc(C(=O)OC)cc1OC [Compound 132] | 1.470 |
| CCCCNc1nc(N)ncc1OCCOc1cc(OC)c(OC)c(OC)c1 [Compound 133] | 1.500 |
| CCCCNc1nc(N)ncc1OCCOc1ccc(C(=O)OC)c(OC)c1 [Compound 134] | 2.010 |
| CCCCNc1nc(N)ncc1OCCOc1ccc(C(F)(F)F)cc1 [Compound 135] | 3.230 |
| CCCCNc1nc(N)ncc1OCCOc1ccnc2ccsc12 [Compound 136] | 2.000 |
| CCCCNc1nc(N)ncc1OCc1cccc(CC(=O)OC)c1 [Compound 137] | 0.757 |
| CCCCNc1nc(N)ncc1OCc1cccc2c1OCCCO2 [Compound 138] | 1.040 |
| CCCCNc1nc(N)ncc1OCc1nccc(OCC(F)(F)F)c1C [Compound 139] | 0.025 |
| CCCCNc1nc(N)ncc1OCCOc1ccc(OC)c(OC)c1 [Compound 140] | 0.617 |
| CCCCNc1nc(N)ncc1OCCOc1ccnc2cc(OC)ccc12 [Compound 141] | 4.360 |
| CCCCNc1nc(N)ncc1OCCOc1cc(C(C)C)nc2cc(OC)ccc12 [Compound 142] | >25 |
| CCCCNc1nc(N)ncc1OCCOc1cccnc1 [Compound 143] | 1.810 |
| CCCCNc1nc(N)ncc1OCCn1ccc(=O)c2ccc(OC)cc21 [Compound 144] | 13.010 |
| CCCC[C@H](CCO)Nc1nc(N)ncc1OCc1ccccc1 [Compound 145] | 2.140 |
